According to patent US10246455B2, “Histone deacetylase inhibitors” (Taipei Medical University, priority 2014, dated 2019):

Assays:
[1] = test system: C6 glioma cell line; assay: Cell death in C6 glioma in vitro (LDH assay); format: cell-based; settings: rat C6 glioma, 30 uM, after 3 days
Description: Cell death was analyzed by a lactate dehydrogenase (LDH) assay. The culture medium was centrifuged after the experiment and the activity of LDH released into culture media was detected with a LDH cytotoxicity detection kit (Roche). The percentage of cytotoxicity was determined by the equation: [(Experimental group−Control group)/(Triton-100-treated group (100% maximal death)−Control group)]×100%.

[2] = test system: human glioblastoma (U87MG or GBM8401) cells; assay: Cell viability in human glioblastoma in vitro (MTT); format: cell-based; settings: U-87 MG, U87MG or GBM8401, 30 uM, read-out: reduction of the cell viability
Description: U87MG human glioblastoma cell line was treated with Compound 7 and analyzed following the procedure described below.
Cell viability was assessed by an MTT assay. Briefly, cells were incubated with 0.25 mg/mL MTT (Sigma) at 37° C. for 1 hour and the MTT fomazan were measured spectrophotometrically (μQuant, Bio-Tek) at 595 nm after dissolution of the crystals in DMSO.

[3] = test system: HDACs (p21, p27, histone, and α-tubulin acetylation) in the PC3 xenograft model; assay: In vivo HDAC inhibitory assay, PC3 xenograft; settings: 25 mg/kg, oral, PC3 xenograft mice
Description: Subcutaneous inoculation of 5×10^6 PC3 cells in specific pathogen-free male athymic mice (strain BALB/cAnN.Cg-Foxn1nu/CrlNarl) from the National Laboratory Animal Center, Taiwan, was applied. The mice were subsequently fed under specific pathogen-free conditions and provided with sterile water and food. […] Tumor samples were obtained and frozen in liquid nitrogen before storage in −80° C. Tumor proteins were extracted and subjected to the Western blotting analysis. β-Actin was used as an internal control.

[4] = test system: HSC-3 (oral carcinoma); assay: IC50 in human cancer cell lines (inhibiting HDAC): HSC-3; settings: HSC-3, read-out: IC50, inhibiting HDAC in human cancer cell lines
[5] = test system: MCF-7 (breast carcinoma); assay: IC50 in human cancer cell lines (inhibiting HDAC): MCF-7; settings: MCF7, read-out: IC50, inhibiting HDAC in human cancer cell lines
[6] = test system: human glioblastoma (U87-MG-LucNeo cells) xenograft; assay: In vivo antitumor activity against human glioblastoma xenograft tumor: survival; settings: intracranial U87 xenograft, Compound 7 50-100 mg/kg p.o.; TMZ 50 mg/kg p.o.
Source text: Male athymic nude mice at 5-6 weeks old were obtained from BioLasco (Taiwan) and maintained in a specific-pathogen-free facility. All experimental procedures were approved by the Institute of Animal Care and Use Committee of Taipei Medical University. Each nude mouse was anesthetized with an i.p. injection of xylazine (Sigma) and zolazepam (Zoletil 50, Virbac), and then secured in a stereotaxic frame.

[7] = biological target: HDAC 1 (Homo sapiens, UniProt Q13547); assay: Deacetylase enzyme assay (fluorescence release): HDAC1; format: biochemical; settings: 24-hour study
Source text: (§1) Proteins from cells were extracted and subjected to the western blotting analysis. β-Actin was used as an internal control. The deacetylase enzyme assay was based on a homogeneous fluorescence release assay. […] After fluorophore from the deacetylated substrates, fluorescent signal was detected.

[8] = test system: histone and α-tubulin acetylation in human BJAB B cell lymphoma; assay: Western blot: acetylation in BJAB cells; format: cell-based
Description: More specifically, cells in the logarithmic phase were initially seeded at a density of 1×10^6 in 100 mm^2 dishes. […] Briefly, cells were lysed with the cell lysis reagent CelLytic™ M (Sigma-Aldrich) containing 1 mM DTT, 1 mM PMSF and protease inhibitors for whole-cell lysate preparation. Equal amounts of lysate (on a protein basis) were then differentiated using the SDS-PAGE, blotted on PVDF membranes, conjugated with various specific primary antibodies, and then probed with appropriate secondary antibodies. The immunoreactive bands were detected using the ECL method and visualized on Kodak Bio-MAX MR film.
as §1

[9] = test system: K2 (normal: keratinocyte); assay: IC50 against cell lines: K2; settings: Homo sapiens, read-out: IC50 ± SD against human cancer cell lines
[10] = test system: HUVEC (normal: endothelial); assay: IC50 against cell lines: HUVEC; settings: Homo sapiens, read-out: IC50 ± SD against human cancer cell lines
[11] = test system: Detroit551 (normal: fibroblast); assay: IC50 against cell lines: Detroit551; settings: Homo sapiens, Detroit 551, read-out: IC50 ± SD against human cancer cell lines
[12] = test system: H9 (T cell lymphoma); assay: IC50 against human cancer cell lines: H9; settings: read-out: IC50 ± SD against human cancer cell lines
[13] = test system: KB-7D (KB resistant); assay: IC50 against human cancer cell lines: KB-7D; settings: KB7D, read-out: IC50 ± SD against human cancer cell lines
Description: (§2) More specifically, the IC50 values of test compounds were determined by carrying out a fluorimetric histone deacetylase assay following the manufacturer's instructions. For a pan-HDAC assay, HeLa nuclear extracts were used as a source of histone deacetylase (BioVision Inc.). Histone deacetylase isomer inhibition assays were conducted using purified recombinant histone deacetylase proteins of the various isomers (BPS Bioscience Inc.). Reactions were performed in 0.1 mol/L KCl, 20 mmol/L HEPES/NaOH at pH 7.9, 20% glycerol, 0.2 mmol/L DTA, 0.5 mmol/L DTT, and 0.5 mmol/L phenylmethylsulfonylfluoride. […] Reactions were carried out in triplicate for each test compound. Each point represented the mean±SD of replicates.

[14] = test system: KB-L30 (KB-resistant); assay: IC50 against human cancer cell lines: KB-L30; settings: read-out: IC50 ± SD against human cancer cell lines
Description: as §2

[15] = test system: OECM-1 (oral carcinoma); assay: IC50 against human cancer cell lines: OECM-1; settings: OECM1, read-out: IC50 ± SD against human cancer cell lines
[16] = test system: LNCaP-R2 (prostate carcinoma); assay: IC50 against human cancer cell lines: LNCaP-R2; settings: read-out: IC50 ± SD against human cancer cell lines
[17] = test system: MDA-MB-231 (breast carcinoma); assay: IC50 against human cancer cell lines: MDA-MB-231; settings: MDA-MB-231, read-out: IC50 ± SD against human cancer cell lines
Description: as §2

Sequence of HDAC 1 (Q13547 whole entry, species assumed): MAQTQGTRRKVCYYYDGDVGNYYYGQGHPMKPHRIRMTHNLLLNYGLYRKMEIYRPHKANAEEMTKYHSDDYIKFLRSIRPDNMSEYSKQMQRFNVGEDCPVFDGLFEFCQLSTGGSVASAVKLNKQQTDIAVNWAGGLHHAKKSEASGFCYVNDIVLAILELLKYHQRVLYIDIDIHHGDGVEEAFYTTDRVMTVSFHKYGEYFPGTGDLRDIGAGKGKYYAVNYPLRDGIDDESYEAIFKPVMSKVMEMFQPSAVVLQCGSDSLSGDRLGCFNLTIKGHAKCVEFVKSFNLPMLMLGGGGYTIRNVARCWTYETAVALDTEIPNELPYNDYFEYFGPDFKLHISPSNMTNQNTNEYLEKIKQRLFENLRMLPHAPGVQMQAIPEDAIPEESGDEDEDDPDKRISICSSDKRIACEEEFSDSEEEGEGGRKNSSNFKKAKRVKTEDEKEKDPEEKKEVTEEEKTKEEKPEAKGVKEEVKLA

Row | SMILES | induction of cell death (LDH) [1] | cytotoxicity at 30 µM [2] | inhibiting HDACs in vivo (p21, p27, histone, and α-tubulin acetylation) [3] | IC50 [4] | IC50 [5] | survival [6] | concentration inducing inhibition of HDAC 1 [7] | histone and α-tubulin acetylation [8] | IC50 [9] | IC50 [10] | IC50 [11] | IC50 [12] | IC50 [13] | IC50 [14] | IC50 [15] | IC50 [16] | IC50 [17]
1 | O=C(/C=C/c1cccc(S(=O)(=O)n2ccc3cccnc32)c1)NO [Compound 7, (E)-3-(3-(1H-Pyrrolo[2,3-b]pyridin-1-ylsulfonyl)phenyl)-N-hydroxyacrylamide] | about 100% | ~70% | effective | 660 ± 120 nM | 1330 ± 360 nM | extended survival longer than TMZ |  |  |  |  |  |  |  |  |  |  | 
2 | COc1ccc(S(=O)(=O)N2CCc3cc(/C=C/C(=O)NO)cnc32)cc1 [Compound 5b, (E)-N-hydroxy-3-(1-(4-methoxyphenylsulfonyl)-2,3-dihydro-1H-pyrrolo[2,3-b]pyridin-5-yl)acrylamide] |  |  |  |  |  |  | ≤ 50 nM | induced histone and α-tubulin acetylation | 447 ± 37.3 nM | 62 ± 2.8 nM | 707 ± 64.7 nM | 55.4 ± 7.8 nM | 139 ± 26.8 nM | 175 ± 26.8 nM | 384 ± 72.1 nM | 100 ± 40 nM | 247 ± 9.3 nM
